Data: patent US20040204577A1, “Novel peptide-forming enzyme gene” (Ajinomoto Co., Inc., priority 2003, published 2004)
Where a SMILES comes first, the peptide text is derived from it. [ ]: non-standard residue; d: D form. The star is where a group is joined. Tle = CC(C)(C)[C@H](N)C(=O)O; NMeA = CN[C@@H](C)C(=O)O; Boc = CC(C)(C)OC(=O)*; Aib = CC(C)(N)C(=O)O; OtBu = CC(C)(C)O*; tBu = CC(C)(C)*

Tested on: peptide-forming enzyme (Mono S fraction enzyme)
Assay: Enzyme substrate specificity (1)-(10), (13), (14): peptide production
Assay type: biochemical, Empedobacter brevis
Parameters: key to Formed peptide: +: those peptides for which production was confirmed but which were unable to be quantified due to the absence of a standard; a trace amount
Conditions: L or D amino acid methyl ester hydrochloride 100 mM, L or D amino acid 150 mM, pH 9.0, 25° C., 3 hours
Procedure: Ester specificity was examined in the case of using L-amino acid ester for the carboxy component. 2 μl of the same enzyme fraction as used in Example 5 was added to 100 μl of 100 mM borate buffer (pH 9.0) containing the carboxy components indicated in Table 4 at 100 mM, 200 mM L-glutamine and 10 mM EDTA, and allowed to react at 25° C. for 2 hours. HCl represents hydrochloride in Table 4.
Peptide production was examined in the case of using L-alanine methyl ester for the carboxy component and using various L-amino acids for the amine component.
Peptide production was examined in the case of using various types of L-amino acid methyl esters for the carboxy component and using L-glutamine for the amine component. 2 μl of the same enzyme fraction as used in Example 5 was added to 100 μl of 100 mM borate buffer (pH 9.0) containing the L-amino acid methyl ester hydrochloride salts (AA-OMe.HCl) shown in Table 6 at 100 mM, 150 mM L-glutamine and 10 mM EDTA, and allowed to react at 25° C. for 3 hours. […] Furthermore, Tween-80 was added to the reaction system to a final concentration of 0.1% in the case of using L-Trp-OMe and L-Tyr-OMe.
Peptide production was examined in the case of using various L-amino acid methyl esters for the carboxy component and various L-amino acids for the amine component. 2 μl of the same enzyme fraction as used in Example 5 was added to 100 μl of 100 mM borate buffer (pH 9.0) containing the L-amino acid methyl ester hydrochloride salts (AA-OMe.HCl) shown in Table 7 at 100 mM, the L-amino acids shown in Table 7 at 150 mM and 10 mM EDTA, and allowed to react at 25° C. for 3 hours. The “tr” indicates a trace amount. Furthermore, Tween-80 was added to the reaction system to a final concentration of 0.1% in the case of using L-Trp-OMe.
Peptide production was examined in the case of using the L or D forms of various amino acid methyl esters for the carboxy component, and the L or D forms of various amino acids for the amine component. 2 μl of the same enzyme fraction as used in Example 5 was added to 100 μl of 100 mM borate buffer (pH 9.0) containing the various amino acid methyl ester hydrochloride salts (AA-OMe HCl) shown in Table 8 at 100 mM, the various amino acids shown in Table 8 at 150 mM and 10 mM EDTA, and allowed to react at 25° C. for 3 hours. The “tr” indicates a trace amount.
Peptide production was examined using various L-amino acid amides for the carboxy component, and various L-amino acids for the amine component. 2 μl of the same enzyme fraction as that used in Example 5 was added to 100 μl of 100 mM borate buffer (pH 9.0) containing the L-amino acid amide hydrochloride salt (M-NH2.HCl) shown in Table 9 at 100 mM, the L-amino acids shown in Table 9 at 150 mM and 10 mM EDTA, and allowed to react at 25° C. for 3 hours.
Peptide production was examined in the case of using various L-alanine methyl esters for the carboxy component and C-protected L-amino acids for the amine component. 2 μl of the same enzyme fraction as used in Example 5 was added to 100 μl of 100 mM borate buffer (pH 9.0) containing the L-alanine methyl ester hydrochloride hydrochloride salt (Ala-OMe.HCl) shown in Table 10 at 100 mM, the L-amino acid amide hydrochloride salts shown in Table 10 at 150 mM and 10 mM EDTA, and allowed to react at 25° C. for 3 hours.
Peptide production was examined in the case of using various amino acid methyl esters for the carboxy component and methylamine for the amine component. 2 μl of the same enzyme fraction as used in Example 5 was added to 100 μl of 100 mM borate buffer (pH 9.0) containing the amino acid methyl ester hydrochloride salt (M-OMe.HCl) shown in Table 11 at 100 mM, the methylamine shown in Table 11 at 150 mM and 10 mM EDTA, and allowed to react at 25° C. for 3 hours.
Peptide production was examined in the case of using […] for the carboxy component or β-amino acid for the amine component.

| Structure (SMILES) | Formed peptide |
| --- | --- |
| C[C@@H](N)C(=O)N[C@H](CCC(N)=O)C(=O)O [D-Ala-D-Gln] (H-[dA]-[dQ]-OH) | tr |
| C[C@@H](N)C(=O)N[C@@H](CCC(N)=O)C(=O)O [D-Ala-L-Gln] (H-[dA]-Gln-OH) | 69.3 mM |
| CSCC[C@@H](N)C(=O)N[C@H](CO)C(=O)O [D-Met-D-Ser] (H-[dM]-[dS]-OH) | 2.7 mM |
| CSCC[C@@H](N)C(=O)N[C@@H](CO)C(=O)O [D-Met-L-Ser] (H-[dM]-Ser-OH) | 5.1 mM |
| N[C@H](CO)C(=O)N[C@H](CO)C(=O)O [D-Ser-D-Ser] (H-[dS]-[dS]-OH) | 2.5 mM |
| N[C@H](CO)C(=O)N[C@@H](CO)C(=O)O [D-Ser-L-Ser] (H-[dS]-Ser-OH) | 3.3 mM |
| C[C@H](O)[C@@H](N)C(=O)N[C@H](CO)C(=O)O [D-Thr-D-Ser] (H-[dT]-[dS]-OH) | 1.1 mM |
| C[C@H](O)[C@@H](N)C(=O)N[C@@H](CO)C(=O)O [D-Thr-L-Ser] (H-[dT]-Ser-OH) | 1.0 mM |
| CC(C)[C@@H](N)C(=O)N[C@H](CO)C(=O)O [D-Val-D-Ser] (H-[dV]-[dS]-OH) | 0.5 mM |
| CC(C)[C@@H](N)C(=O)N[C@@H](CO)C(=O)O [D-Val-L-Ser] (H-[dV]-Ser-OH) | 0.6 mM |

Results, then the molecule that gave them:

| Formed peptide | Structure (SMILES) |
| --- | --- |
| 0.3 mM | C[C@H](N)C(=O)N[C@H](CCC(N)=O)C(=O)O [L-Ala-D-Gln] (H-Ala-[dQ]-OH) |
| 1.9 mM | CSCC[C@H](N)C(=O)N[C@H](CO)C(=O)O [L-Met-D-Ser] (H-Met-[dS]-OH) |
| 16.2 mM | N[C@@H](CO)C(=O)N[C@H](CO)C(=O)O [L-Ser-D-Ser] (H-Ser-[dS]-OH) |
| 6.9 mM | C[C@@H](O)[C@H](N)C(=O)N[C@H](CO)C(=O)O [L-Thr-D-Ser] (H-Thr-[dS]-OH) |
| 1.4 mM | CC(C)[C@H](N)C(=O)N[C@H](CO)C(=O)O [L-Val-D-Ser] (H-Val-[dS]-OH) |

Same assay, conditions: L-amino acid amide hydrochloride as carboxy component 100 mM, L-amino acid 150 mM, pH 9.0, 25° C., 3 hours

| Structure (SMILES) | Formed peptide |
| --- | --- |
| N[C@@H](Cc1ccccc1)C(=O)N[C@@H](CO)C(=O)O [L-Phe-L-Ser] (H-Phe-Ser-OH) | 0.6 mM |

Same assay, conditions: L-amino acid methyl ester hydrochloride 100 mM, 150 mM L-glutamine, pH 9.0, 25° C., 3 hours

| Structure (SMILES) | Formed peptide |
| --- | --- |
| NC(=O)CC[C@H](NC(=O)[C@@H](N)CC(N)=O)C(=O)O [L-Asn-L-Gln] (H-Asn-Gln-OH) | + |
| NC(=O)CC[C@H](NC(=O)[C@@H](N)CS)C(=O)O [L-CySH-L-Gln] (H-Cys-Gln-OH) | + |
| NC(=O)CC[C@H](NC(=O)[C@@H](N)Cc1cnc[nH]1)C(=O)O [L-His-L-Gln] (H-His-Gln-OH) | + |
| CC(C)C[C@H](N)C(=O)N[C@@H](CCC(N)=O)C(=O)O [L-Leu-L-Gln] (H-Leu-Gln-OH) | + |
| NCCCC[C@H](N)C(=O)N[C@@H](CCC(N)=O)C(=O)O [L-Lys-L-Gln] (H-Lys-Gln-OH) | + |
| NC(=O)CCC(NC(=O)C(N)Cc1c[nH]c2ccccc12)C(=O)O [L-Trp-L-Gln] (H-Trp-Gln-OH; configuration not given here) | + |

Same assay, conditions: L-amino acid methyl ester hydrochloride 100 mM, L-amino acid 150 mM, pH 9.0, 25° C., 3 hours

| Structure (SMILES) | Formed peptide |
| --- | --- |
| NCC(=O)N[C@@H](CS)C(=O)O [Gly-L-CySH] (H-Gly-Cys-OH) | 45.6 mM |
| NC(=O)C[C@H](N)C(=O)N[C@@H](CCC(=O)O)C(=O)O [L-Asn-L-] (H-Asn-Glu-OH) | 10.2 mM |
| CSCC[C@H](NC(=O)[C@@H](N)Cc1cnc[nH]1)C(=O)O [L-His-L-Met] (H-His-Met-OH) | 6.5 mM |
| CSCC[C@H](NC(=O)[C@@H](N)CC(C)C)C(=O)O [L-Leu-L-] (H-Leu-Met-OH) | 12.2 mM |
| CSCC[C@H](NC(=O)[C@@H](N)CCCCN)C(=O)O [L-Lys-L-Met] | 6.8 mM |
| C[C@@H](O)[C@H](N)C(=O)N[C@@H](CO)C(=O)O [L-Thr-L-Ser] (H-Thr-Ser-OH) | 58.2 mM |
| CSCC[C@H](NC(=O)[C@@H](N)Cc1c[nH]c2ccccc12)C(=O)O [L-Trp-L-Met] (H-Trp-Met-OH) | 4.1 mM |

Same assay, conditions: carboxy component 40 mM, amine component 40 mM, 0.1 unit enzyme, 25° C., reaction time 3 hr

| Structure (SMILES) | Produced peptide |
| --- | --- |
| C[C@H](N)C(=O)N[C@@H](Cc1ccc(Cl)cc1)C(=O)O [H-Ala-Cl-F-Phe-OH] | 20.8 mM |
| C[C@H](N)C(=O)N[C@@H](Cc1ccc([N+](=O)[O-])cc1)C(=O)O [H-Ala-p-NO2-Phe-OH] | 27.5 mM |
| NC(=O)CC[C@H](NC(=O)[C@@H](N)Cc1ccc([N+](=O)[O-])cc1)C(=O)O [H-p-NO2-Phe-H-Gln-OH] | 1.1 mM |

Same assay, conditions: carboxy component 50 mM, amine component 50 mM, 0.1 unit enzyme, 25° C., reaction time 3 hr

| Structure (SMILES) | Produced peptide |
| --- | --- |
| C[C@H](N)C(=O)N[C@@H](Cc1ccc(F)cc1)C(=O)O [H-Ala-p-F-Phe-OH] | 21.9 mM |

Same assay, conditions: carboxy component 100 mM, 200 mM L-glutamine, pH 9.0, 25° C., 2 hours

| Structure (SMILES) | L-Ala-L-Gln formed |
| --- | --- |
| CCOC(=O)[C@H](C)N.Cl [L-Alanine ethyl ester.HCl] | 91.5 mM |
| CC(C)OC(=O)[C@H](C)N.Cl [L-Alanine isopropyl ester.HCl] | 78.9 mM |
| COC(=O)[C@H](C)N.Cl [L-Alanine methyl ester.HCl, L-alanine methyl ester hydrochloride] | 84.3 mM |
| C[C@H](N)C(=O)OC(C)(C)C.Cl [L-Alanine-t-butyl ester.HCl] | 7.5 mM |

Same assay, conditions: carboxy component 100 mM, amine component 150 mM, 0.1 unit enzyme, 25° C., reaction time 2 hr

| Structure (SMILES) | Produced peptide |
| --- | --- |
| C[C@H](N)C(=O)N[C@@H](CC(=O)OC(C)(C)C)C(=O)O [H-Ala-Asp(OtBu)-OH] (H-Ala-Asp(OtBu)-OH) | 62.6 mM |
| C[C@H](N)C(=O)N[C@@H](CCCCNC(=O)OC(C)(C)C)C(=O)O [H-Ala-Lys(Boc)-OH] (H-Ala-Lys(Boc)-OH) | 51.0 mM |
| C[C@H](N)C(=O)N[C@@H](COC(C)(C)C)C(=O)O [H-Ala-Ser(tBu)-OH] (H-Ala-Ser(tBu)-OH) | 48.8 mM |
| CC(C)(C)OC(=O)C[C@H](N)C(=O)N[C@@H](CCC(N)=O)C(=O)O [H-Asp(OtBu)-Gln-OH] (H-Asp(OtBu)-Gln-OH) | 0.9 mM |

Same assay, conditions: carboxy component 100 mM, amine component 150 mM, 0.1 unit enzyme, 25° C., reaction time 3 hr

| Structure (SMILES) | Produced peptide |
| --- | --- |
| CC(C)(N)C(=O)N[C@@H](CCC(N)=O)C(=O)O [H-Aib-H-Gln-OH] (H-[Aib]-Gln-OH) | 18.8 mM |
| CC(C)(N)C(=O)N[C@@H](Cc1ccccc1)C(=O)O [H-Aib-Phe-OH] (H-[Aib]-Phe-OH) | 17.2 mM |
| C[C@H](N)C(=O)N[C@H](C(=O)O)C(C)(C)C [H-Ala-t-Leu-OH] (H-Ala-[Tle]-OH) | 0.4 mM |
| CN[C@@H](C)C(=O)N[C@@H](CCC(N)=O)C(=O)O [H-N-Me-Ala-H-Gln-OH] (H-[NMeA]-Gln-OH) | 0.5 mM |

Same assay, conditions: β-amino acid ester or β-amino acid; carboxy component 100 mM, amine component 150 mM, pH 9.0, 25° C., 3 hours

| Structure (SMILES) | Formed peptide |
| --- | --- |
| CC(N)C(=O)NCCC(=O)O (stereo not drawn) [Ala-β-Ala] | 7.7 mM |
| CC(N)C(=O)NC(CC(=O)O)c1ccccc1 (stereo not drawn) [Ala-β-Phe] | 1.4 mM |
| NCC(=O)NCCC(=O)O [Gly-β-Ala] | 2.2 mM |
| NCC(=O)NC(CC(=O)O)c1ccccc1 (stereo not drawn) [Gly-β-Phe] | 0.4 mM |
| C[C@@H](O)[C@H](N)C(=O)NCCC(=O)O [Thr-β-Ala] | 3.2 mM |
